Reference: patent publication US8637462B2, “Methods for reducing platelet counts and/or platelet adhesion by administering a GC-B receptor agonist” (Mayo Foundation for Medical Education and Research, priority 2011, dated 2014)
Entries after “also recorded” stand apart in the source; their conditions may differ.

Columns and labels:
[1] = system: GC-B present on megakaryocytes; experiment: cGMP production in megakaryocytes (BIOTRAK cGMP enzyme immunoassay); type: cell-based, mouse; conditions: 30 minutes at 37° C.; FIG. 3
Source text: Primary hematopoietic progenitor cells were isolated from mouse fetal livers of E13.5 embryos (C57B1/6) or from femurs and tibias of C57B1/6 mice using the EasySep negative selection mouse hematopoietic progenitor enrichment kit (Stem Cell Technologies, Vancouver, BC). The progenitor cells were then expanded for two days in serum free expansion media containing 50% RPMI using standard techniques to generate megakaryocytes (Huang et al., J. Clin. Invest., 117(12):3890-9 (2007) and Muntean and Crispino, Blood, 106(4):1223-31 (2005)). The purity of the megakaryocytes was assessed using acetylcholinesterase (AchE) staining using standard protocols and FACS with CD41 (Emfret Analytics).
The following was performed to determine if GC-B present on megakaryocytes is functional and responsive to CNP. Megakaryocytes were treated with either CNP or a single residue mutant CNP designated Lbab for 30 minutes at 37° C. with 5% CO2 in IMDM media supplemented with 1% Nutridoma, penicillin, streptomycin, L-glutamine, and recombinant TPO. The Lbab polypeptide (FIG. 2) is described elsewhere (Yoder et al., Peptides, 29(9):1575-81 (2008)).
After the incubation, the cells were lysed, and the amount of cGMP was measured using a BIOTRAK cGMP enzyme immunoassay system Kit (GE Healthcare Bio-Sciences Corp.).

megakaryocytes = experiment: Megakaryocyte colony formation assay (MegaCult-C); type: cell-based, mouse; conditions: bone marrow cells, 6 to 8 days; FIG. 4
Method: To determine the effect of CNP on the colony forming ability of megakaryocytes, colony formation assays were conducted using MegaCult®-C (StemCell Tech) as per the manufacturer's protocol. Mice were euthanized, and bone marrow was collected from femurs and tibias by flushing the bones multiple times with IMDM. Once a single cell suspension was achieved, the cells were added to MegaCult®-C medium containing cytokines and collagen. The cell suspension was then dispensed into the chamber slide at the concentration of 20,000 cells/well and incubated at 37° C. with 5% CO2 and >95% humidity for 6 to 8 days. The cells were then dehydrated and fixed with acetone followed by acetylcholinesterase staining. The colonies were scored using a 5× objective, and 10× objective was used to examine colonies in greater detail.

platelets [2] = experiment: cGMP production in washed platelets; type: cell-based, mouse; conditions: 30 minutes at 37° C. in Tyrode's buffer with 1 mM Ca+2; FIG. 6
Method: Platelet isolation was adapted from studies described elsewhere (Boylan et al., Blood, 108(3):908-14 (2006); Moraes et al., J. Thromb. Haemost., 8(11):2530-41 (2010); and Bougie et al., Blood, 116(16):3033-8 (2010)). Briefly, C57BL/6 mice were anesthetized with ketamine/xylazine. Blood was obtained from the vena cava and collected into 3.8% sodium citrate. The whole blood was then diluted with equal volumes of Tyrode's buffer containing PGE1 (50 ng/mL), glucose (1 mg/mL), and BSA (2.5 mg/mL) before being spun at 280×g to obtain platelet rich plasma (PRP). The upper […] of the PRP was collected and spun for 10 minutes to collect the platelets. The platelets were then washed with Tyrode's buffer before any analysis was performed. The platelets were counted, visualized by microscopy, and then used for FACS analysis, immunostaining, and western blotting. CD41, CD42D, and GC-B expression was detected by FACS (FIG. 5, middle panel).
The effect of CNP on cGMP production in platelets was studied. Washed platelets were treated with CNP or the mutant Lbab polypeptide for 30 minutes at 37° C. with 5% CO2 in Tyrode's buffer with 1 mM Ca^+2. After the incubation, the cells were lysed, and the amount of cGMP was calculated according to the standard curve that was generated from parallel reactions within the same experiment.

platelets [3] = experiment: Platelet adhesion to collagen; type: cell-based, human or C57B1/6 mice; conditions: for number of platelets adhered to collagen: n=5; for platelet adhesion to collagen (in words): FIG. 7; for pseudopodia formation of platelets adhered to collagen: light microscopy
Method: (§1) The role of CNP on platelet aggregation and platelet adhesion to fibrinogen, fibronectin, and collagen were assessed. Human platelets or platelets from C57B1/6 mice were isolated and treated with either CNP or the Lbab polypeptide for 30 minutes at 37° C. with 5% CO2. Following treatment, the platelets were gently added to cover slips pre-blocked with 1% BSA and pre-coated with fibrinogen, fibronectin, or collagen (50 μg/mL, CHRONOLOG Corp., Havertown, Pa.). Ca^+2 and Mg^+2 were added to 1 mM and 2 mM, respectively, before incubation at 37° C. for 30 minutes. The platelets were then fixed and permeabilized before staining with TRITC Phalloidin (0.5 μg/mL; Sigma) for an hour. The platelets were then gently washed a couple of times with PBS and mounted in Vectashield mounting medium (Vector laboratories, Burlingame, Calif.) and sealed with nail polish as described elsewhere (Moraes et al., J. Thromb. Haemost., 8(11):2530-41 (2010); and Bougie et al., Blood, 116(16):3033-8 (2010)). Images were acquired from five consecutive fields using a Zeiss Axioscop microscope (Carl Zeiss, Oberkochen, Germany) with a Zeiss 100× oil-immersion lens. The images were analyzed using ImageJ software.
Platelets were isolated and treated with either CNP or the mutant Lbab polypeptide for 30 minutes at 37° C. with 5% CO2. Following treatment, the platelets were gently added to cover slips pre-blocked with 1% BSA and pre-coated with collagen ([…], CHRONOLOG-corporation). Ca^+2 and Mg^+2 were added to 1 mM and 2 mM, respectively, before incubation at 37° C. for 30 minutes. The platelets were then fixed and permeabilized before staining with TRITC Phalloidin (0.5 μg/mL; Sigma) for an hour. The platelets were then gently washed a couple of times with PBS and then mounted in Vectashield mounting medium (Vector laboratories, Burlingame, Calif.) and sealed with nail polish. Images were acquired from five consecutive fields using Zeiss Axioscop microscope (Carl Zeiss, Oberkochen, Germany) with a Zeiss 100× oil-immersion lens and analyzed using ImageJ software.
Cells were placed in Trump's fixative, 4% formaldehyde: 1% glutaraldehyde for 1 hour or longer at 4° C. After two rinses in 0.1 M sodium phosphate buffer (pH 7.2), samples were dehydrated in a graded ethanol series to 100% ethanol at which time they were critical point dried with liquid carbon dioxide. They were then mounted on specimen stubs, sputter-coated with gold-palladium, and examined with a Hitachi S4700 scanning electron microscope.

platelets [4] = experiment: Platelet adhesion to fibrinogen; type: cell-based, human or C57B1/6 mice; conditions: CNP-treated vs Lbab polypeptide-treated
Method: as §1

platelets [5] = experiment: Platelet adhesion to fibronectin; type: cell-based, human or C57B1/6 mice; conditions: CNP-treated vs Lbab polypeptide-treated
Method: as §1

platelets [6] = experiment: Platelet aggregation (lumi-aggregometer); type: cell-based; conditions: data not shown
Method: The role of CNP on platelet aggregation and platelet adhesion to fibrinogen, fibronectin, and collagen were assessed. Human platelets or platelets from C57B1/6 mice were isolated and treated with either CNP or the Lbab polypeptide for 30 minutes at 37° C. with 5% CO2. Following treatment, the platelets were gently added to cover slips pre-blocked with 1% BSA and pre-coated with fibrinogen, fibronectin, or collagen (50 μg/mL, CHRONOLOG Corp., Havertown, Pa.). Ca^+2 and Mg^+2 were added to 1 mM and 2 mM, respectively, before incubation at 37° C. for 30 minutes. The platelets were then fixed and permeabilized before staining with TRITC Phalloidin (0.5 μg/mL; Sigma) for an hour. […] The images were analyzed using ImageJ software.
Platelet aggregation was performed at 37° C. in lumi-aggregometer in the presence of luciferin-luciferase to simultaneously measure light transmission and secretion of dense granule-derived ATP. […] Platelet aggregation and secretion was measured in a lumi-aggregometer (Chrono-Log, Havertown, Pa.) for 1 minute following which the polypeptide (CNP or Lbab) was added to the platelets, and aggregation and secretion were measured once again for 2 minutes in order to determine if the polypeptide itself activates the platelets. […] Aggregation and secretion were measured for 15 minutes.

tubulin [7] = experiment: Immunocytochemistry of tubulin in platelets (cytospin); type: cell-based; conditions: human platelets; FIG. 9
Method: (§2) The following was performed to determine if CNP could affect cytoskeletal proteins such as tubulin and/or actin. To delineate this function of CNP, human platelets were either treated with the Lbab polypeptide or CNP and were placed on slides using cytospin Immunocytochemistry was performed with anti-tubulin or anti-actin antibodies.
PRP was spun down in a cytospin at 1000 rpm for 2 minutes to obtain slides of mouse/human platelets. These slides were fixed and blocked with 10% normal goat serum and incubated with mouse anti-tubulin antibody at 1:700 (Sigma) in PBS. Goat anti-mouse Alexa Fluor 594 at 1:500 (Molecular Probes) was used to visualize the tubulin. Matched negative controls also were used.

tubulin [8] = experiment: Platelet spreading assay, tubulin staining; type: cell-based; conditions: FIG. 10
Source text: (§3) To confirm these findings, tubulin and actin also were stained on platelets that were viable and functionally active using a spreading assay.

actin = experiment: Platelet spreading assay, actin staining; type: cell-based; conditions: FIG. 10
Method: as §2, §3

tubulin [9] = experiment: Tubulin polymerization assay; type: biochemical; conditions: nucleation, growth and steady state phases; FIG. 11
Method: To demarcate whether the effects of CNP on microtubules was direct or indirect, a microtubule polymerization assay from cytoskeleton was utilized as per manufacturer's protocol. The assay studied all three phases of microtubule formation, namely nucleation, growth, and steady state equilibrium.
A 96-well plate was warmed in the incubator to 37° C. for 10 minutes. During this time, 10× stock solutions of compounds to be tested were prepared. 5 μL of control buffer, 5 μL of the 10× paclitaxel stock, and 5 μL of the 10× test compound were added to their respective wells. Next, the 96 well plate was placed back into warm plate reader for 1 minute. Finally, 50 μL of the tubulin reaction mix was added to each of the wells as quickly as possible, and the plate reader was started.

GC-B present on megakaryocytes, sequence (Q6VVW5 23-1047 limits assumed): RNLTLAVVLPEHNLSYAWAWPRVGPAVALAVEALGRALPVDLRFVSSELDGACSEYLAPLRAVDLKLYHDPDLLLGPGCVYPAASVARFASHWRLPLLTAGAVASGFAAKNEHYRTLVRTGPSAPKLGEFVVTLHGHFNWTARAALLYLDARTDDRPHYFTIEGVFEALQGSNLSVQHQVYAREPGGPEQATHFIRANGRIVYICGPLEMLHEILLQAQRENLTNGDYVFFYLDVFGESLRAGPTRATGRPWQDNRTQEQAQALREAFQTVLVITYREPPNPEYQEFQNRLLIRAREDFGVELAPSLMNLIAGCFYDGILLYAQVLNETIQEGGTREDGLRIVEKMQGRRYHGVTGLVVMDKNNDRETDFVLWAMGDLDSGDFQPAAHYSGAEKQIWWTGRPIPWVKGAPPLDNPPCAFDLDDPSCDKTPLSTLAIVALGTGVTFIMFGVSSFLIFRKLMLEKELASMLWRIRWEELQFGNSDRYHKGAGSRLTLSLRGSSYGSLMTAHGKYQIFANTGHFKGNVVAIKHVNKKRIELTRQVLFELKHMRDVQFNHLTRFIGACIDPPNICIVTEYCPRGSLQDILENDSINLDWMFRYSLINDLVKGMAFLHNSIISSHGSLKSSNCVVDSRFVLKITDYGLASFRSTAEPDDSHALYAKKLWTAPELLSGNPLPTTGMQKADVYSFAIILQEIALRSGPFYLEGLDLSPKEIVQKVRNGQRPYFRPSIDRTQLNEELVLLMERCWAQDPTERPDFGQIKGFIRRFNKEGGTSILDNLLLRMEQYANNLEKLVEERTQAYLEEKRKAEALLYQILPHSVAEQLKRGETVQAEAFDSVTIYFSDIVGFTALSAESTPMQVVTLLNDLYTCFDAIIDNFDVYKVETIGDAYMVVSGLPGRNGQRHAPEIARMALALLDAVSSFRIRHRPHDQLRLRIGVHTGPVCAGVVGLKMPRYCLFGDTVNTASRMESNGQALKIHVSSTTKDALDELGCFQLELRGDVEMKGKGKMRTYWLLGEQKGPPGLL

Row | Compound | cGMP production by megakaryocytes [1] | megakaryocyte colony formation (megakaryocytes) | megakaryocyte colony size (megakaryocytes) | cGMP production in platelets (platelets [2]) | number of platelets adhered to collagen (platelets [3]; 500 nM) | number of platelets adhered to collagen (platelets [3]; 1000 nM) | platelet adhesion to collagen (in words) (platelets [3]) | filopodia of platelets in the presence of collagen (platelets [3]; electron microscopy, varying concentrations, FIG. 8) | pseudopodia formation of platelets adhered to collagen (platelets [3]) | adhesion of platelets to fibrinogen (platelets [4]) | adhesion of platelets to fibronectin (platelets [5]) | platelet aggregation (platelets [6]) | marginal band formation (tubulin) within platelets (tubulin [7]) | tubulin distribution in spreading platelets (tubulin [8]) | actin distribution / function in spreading platelets (actin) | tubulin polymerization (O.D.) (tubulin [9])
1 | c-type natriuretic peptide [CNP] | stimulated a dose-dependent increase in cGMP formation | inhibited colony formation | significantly affected colony size | did not affect cGMP levels | 2451±39 | 1712±20 | attenuated platelet adhesion to collagen | aberrant filopodia | abnormal pseudopodia formation | no significant difference | no significant difference | unaffected | decreased marginal band formation | inhibits tubulin distribution in spreading platelets | minimal effect on actin distribution; also recorded: does not influence actin function significantly | has effects on the growth and steady state phases of tubulin polymerization
2 | CC(=O)O[C@H]1C(=O)[C@@]2(C)[C@H]([C@H](OC(=O)c3ccccc3)[C@]3(O)C[C@H](OC(=O)[C@H](O)[C@@H](NC(=O)c4ccccc4)c4ccccc4)C(C)=C1C3(C)C)[C@]1(OC(C)=O)CO[C@@H]1C[C@@H]2O [Taxol, paclitaxel, reference compound] |  |  |  |  |  |  |  |  |  |  |  |  |  | inhibits tubulin distribution in spreading platelets | minimal effect on actin distribution | effects on the growth and steady state phases of tubulin polymerization
3 | Lbab: single residue mutant CNP (SEQ ID NO:2) with Arg to Gly substitution, used as control polypeptide (GLSKGCFGLKLDGIGSMSGLGC; Mutant CNP; listed as Homo sapiens) [reference compound] | but not the Lbab polypeptide, stimulated cGMP production |  |  |  | 4536±43 | 4390±24 | near normal platelet adhesion to collagen |  | normal sprouting of pseudopodia |  |  |  | capable of forming clear marginal bands | does not demonstrate such an affect |  | 
